Source: ChEMBL document CHEMBL1152860, “Synthesis and antiproliferative activity of 3-amino-N-phenyl-1H-indazole-1-carboxamides” (2009)
Calls of active or inactive are those of the source. The rule behind the calls is not given here.

Assays:
K562 [1] = experiment: Decrease in total phosphorylated retinoblastoma protein level in human K562 cells at 14 uM after 24 hrs by flow cytometry; format: functional, cell-based
RPMI-8226 = experiment: Growth inhibition of human RPMI8226 cells after 48 hrs by SRB assay; format: functional; settings: RPMI-8226, 48 h; for CC50: read-out: LC50 (the source's name)
SF-295 = experiment: Growth inhibition of human SF295 cells after 48 hrs by SRB assay; format: functional; settings: SF-295, 48 h
SW-620 = experiment: Growth inhibition of human SW620 cells after 48 hrs by SRB assay; format: functional; settings: SW-620, 48 h
LOX IMVI = experiment: Growth inhibition of human LOXIMVI cells after 48 hrs by SRB assay; format: functional
HOP-62 = experiment: Growth inhibition of human HOP62 cells after 48 hrs by SRB assay; format: functional; settings: HOP-62, 48 h
K562 [2] = experiment: Cell cycle arrest in human K562 cells assessed as decrease in accumulation at S phase at 1.2 uM after 24 hrs using propidium iodide staining by flow cytometry; format: functional, cell-based
RXF 393 = experiment: Growth inhibition of human […] cells after 48 hrs by SRB assay; format: functional; settings: RXF 393, 48 h
K562 [3] = experiment: Cell cycle arrest in human K562 cells assessed as decrease in accumulation at G2/M phase at 1.2 uM after 24 hrs using propidium iodide staining by flow cytometry; format: functional, cell-based
SK-MEL-2 = experiment: Growth inhibition of human SK-MEL-2 cells after 48 hrs by SRB assay; format: functional; settings: SK-MEL-2, 48 h
K562 [4] = experiment: Cell cycle arrest in human K562 cells assessed as accumulation at G0/G1 phase at 1.2 uM after 24 hrs using propidium iodide staining by flow cytometry; format: functional, cell-based
NCI-H522 = experiment: Growth inhibition of human NCI-H522 cells after 48 hrs by SRB assay; format: functional; settings: NCI-H522, 48 h
UACC-257 = experiment: Growth inhibition of human UACC257 cells after 48 hrs by SRB assay; format: functional; settings: UACC-257, 48 h
UACC-62 = experiment: Growth inhibition of human UACC62 cells after 48 hrs by SRB assay; format: functional; settings: UACC-62, 48 h
HL-60(TB) = experiment: Growth inhibition of human HL-60(TB) cells after 48 hrs by SRB assay; format: functional; settings: HL-60, 48 h; for CC50: read-out: LC50 (the source's name)
OVCAR-3 = experiment: Growth inhibition of human OVCAR-3 cells after 48 hrs by SRB assay; format: functional; settings: OVCAR-3, 48 h
K562 [5] = experiment: Decrease in total phosphorylated retinoblastoma protein level in human K562 cells at 34 uM after 24 hrs by flow cytometry; format: functional, cell-based
CCRF-CEM = experiment: Growth inhibition of human CCRF-CEM cells after 48 hrs by SRB assay; format: functional
K562 [6] = experiment: Cell cycle arrest in human K562 cells assessed as accumulation at G0/G1 phase at 15.9 uM after 24 hrs using propidium iodide staining by flow cytometry; format: functional, cell-based
K562 [7] = experiment: Cell cycle arrest in human K562 cells assessed as decrease in accumulation at G2/M phase at 15.9 uM after 24 hrs using propidium iodide staining by flow cytometry; format: functional, cell-based
K562 [8] = experiment: Cell cycle arrest in human K562 cells assessed as decrease in accumulation at S phase at 15.9 uM after 24 hrs using propidium iodide staining by flow cytometry; format: functional, cell-based
[9] = read-out: LC50 (the source's name)

`Nc1nn(C(=O)Nc2ccc(Cc3ccccc3)cc2)c2ccccc12` was tested, and the Activity (K562 [1]) was “Active”, the GI50 (RPMI-8226) was 1.86 µM and the TGI (RPMI-8226) was 25.8 µM. It also gave a CC50 (RPMI-8226) of 84 µM, a GI50 (SF-295) of 0.53 µM and a TGI (SF-295) greater than 100 µM. The CC50 (SF-295; [9]) was greater than 100 µM, the GI50 (SW-620) was 3.62 µM and the GI50 (LOX IMVI) was 0.477 µM. It also gave an LC50 (concentration killing 50% of cells) (LOX IMVI) of 61.5 µM, a TGI (LOX IMVI) of 16.1 µM and a GI50 (HOP-62) of 13.7 µM. The Activity (K562 [2]) was “Active”, the GI50 (RXF 393) was 22.2 µM and the Activity (K562 [3]) was “Active”. For the same compound, the GI50 (SK-MEL-2) was 36.4 µM, the Activity (K562 [4]) was “Active” and the GI50 (NCI-H522) was 2.9 µM. The TGI (NCI-H522) was greater than 100 µM, the CC50 (NCI-H522; [9]) was greater than 100 µM and the GI50 (UACC-257) was 10 µM. It also gave a GI50 (UACC-62) of 0.353 µM, a TGI (UACC-62) greater than 100 µM and a CC50 (UACC-62; [9]) greater than 100 µM. It also gave a GI50 (HL-60(TB)) of 0.466 µM, a TGI (HL-60(TB)) of 15.2 µM and a CC50 (HL-60(TB)) of 54.9 µM. For the same compound, the GI50 (OVCAR-3) was 6.23 µM.

For `CCCCOc1ccc(NC(=O)n2nc(N)c3ccccc32)cc1`, the GI50 (RPMI-8226) was 2.72 µM, the TGI (RPMI-8226) was 30.8 µM and the CC50 (RPMI-8226) was greater than 100 µM. The GI50 (SF-295) was 21.7 µM, the GI50 (SW-620) was 18.3 µM and the GI50 (LOX IMVI) was 12.2 µM. For the same compound, the GI50 (HOP-62) was 20.8 µM, the Activity (K562 [5]) was “Active” and the GI50 (RXF 393) was 29.6 µM. It also gave a GI50 (CCRF-CEM) of 0.213 µM, an LC50 (CCRF-CEM) greater than 100 µM and a TGI (CCRF-CEM) of 17.5 µM. For the same compound, the Activity (K562 [6]) was “Active”, the GI50 (NCI-H522) was 27.4 µM and the GI50 (UACC-257) was 29.2 µM. For the same compound, the GI50 (UACC-62) was 14.7 µM, the Activity (K562 [7]) was “Active” and the GI50 (HL-60(TB)) was 2.23 µM. The TGI (HL-60(TB)) was 30.4 µM, the CC50 (HL-60(TB)) was greater than 100 µM and the Activity (K562 [8]) was “Active”. It also gave a GI50 (OVCAR-3) of 18.8 µM.
